This note sets out measurements from US20160185797A1, “ALKYNYL ALCOHOLS AND METHODS OF USE” (Genentech, Inc., priority 2013, published 2016).

In assay [1] the target is T1, nuclear factor-kappa B (NF-kB)-inducing kinase (NIK) (Homo sapiens, UniProt Q99558).
T1 construct: made in house; host or cells: baculovirus-infected insect cells
Nature of the assay: NIK enzyme inhibition assay (Transcreener ADP fluorescence polarization, NIK ADP-FP). In kind it is biochemical.

For assay [2], the system named is REL-A (p65) nuclear translocation in HeLa cells. Nature of the assay: REL-A (p65) nuclear translocation assay in HeLa cells, TNF-α stimulated (classical NF-kB signaling), high content imaging. In kind it is cell-based. The conditions noted are these: Homo sapiens, HeLa, compound 4.5 h, then 10 ng/mL TNF-α for 30 minutes, read-out: REL-A HeLa Transloc Assay (IC50). In a few lines:
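HeLa cells in medium with 10% fetal bovine serum were exposed to compounds (0.2% DMSO final) for 4.5 hours, then stimulated with 10 ng/mL TNF-α for 30 minutes. After fixation in 4% paraformaldehyde and permeabilization with 0.1% Triton X-100, cells were stained with 400 ng/mL anti-REL-A (p65) antibody, an Alexa488 secondary and DRAQ5. Opera imaging quantified the nuclear-to-cytoplasmic signal ratio to give IC50.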

Assay [3] relates to p52 (NF-kB2) nuclear translocation in HeLa cells. Kind of assay: p52 (NF-kB2) nuclear translocation assay in HeLa cells, anti-lymphotoxin beta receptor antibody stimulated (non-classical NF-kB signaling), high content imaging. In kind it is cell-based. The conditions noted are these: Homo sapiens, 100 ng/mL anti-lymphotoxin beta receptor antibody for 5 hours, read-out: p52 HeLa Transloc Assay (IC50). In a few lines: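 HeLa cells in 10% FBS medium were treated with compound (0.2% DMSO final) and stimulated with 100 ng/mL anti-lymphotoxin beta receptor antibody for 5 h. Fixed cells were immunostained for p52 and imaged with DRAQ5 nuclear stain. Translocation is the nuclear to cytoplasmic intensity ratio, […].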

T1 sequence (Q99558 whole entry): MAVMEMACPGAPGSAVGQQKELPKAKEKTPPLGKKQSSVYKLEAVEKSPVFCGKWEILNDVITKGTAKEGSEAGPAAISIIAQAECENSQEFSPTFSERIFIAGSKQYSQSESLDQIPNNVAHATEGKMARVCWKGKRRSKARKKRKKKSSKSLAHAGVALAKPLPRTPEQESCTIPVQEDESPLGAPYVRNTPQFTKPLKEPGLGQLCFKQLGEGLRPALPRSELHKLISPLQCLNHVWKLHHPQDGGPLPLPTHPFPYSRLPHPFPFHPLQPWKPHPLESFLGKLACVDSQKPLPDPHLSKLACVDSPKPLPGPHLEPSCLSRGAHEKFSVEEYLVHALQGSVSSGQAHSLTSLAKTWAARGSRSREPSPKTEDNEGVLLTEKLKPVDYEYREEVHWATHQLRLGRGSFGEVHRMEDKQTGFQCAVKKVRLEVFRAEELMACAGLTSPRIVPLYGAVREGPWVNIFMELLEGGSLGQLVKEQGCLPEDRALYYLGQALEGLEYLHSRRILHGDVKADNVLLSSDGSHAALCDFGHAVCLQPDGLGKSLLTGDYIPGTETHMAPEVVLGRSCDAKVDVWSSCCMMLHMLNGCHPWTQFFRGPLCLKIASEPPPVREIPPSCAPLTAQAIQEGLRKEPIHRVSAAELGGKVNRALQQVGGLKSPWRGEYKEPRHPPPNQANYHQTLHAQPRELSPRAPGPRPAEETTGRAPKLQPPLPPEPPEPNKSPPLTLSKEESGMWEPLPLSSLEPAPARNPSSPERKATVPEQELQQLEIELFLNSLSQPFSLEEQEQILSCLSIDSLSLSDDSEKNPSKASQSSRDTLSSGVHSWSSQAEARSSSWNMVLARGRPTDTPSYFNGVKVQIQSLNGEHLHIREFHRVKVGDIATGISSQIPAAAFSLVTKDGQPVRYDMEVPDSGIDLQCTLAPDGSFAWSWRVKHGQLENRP

`CN1CCC[C@@](O)(C#Cc2cccc(-c3nc(C(N)=O)c(N)cc3F)c2)C1=O` [Example 131, 3-amino-5-fluoro-6-[3-[2-[(3R)-3-hydroxy-1-methyl-2-oxo-3-piperidyl]ethynyl]phenyl]pyridine-2-carboxamide] came in with a Ki in assay [1] of 1.06 nM. In addition, the results for the IC50 in assay [2] and in assay [3] were not below 2000 nM and 142 nM, respectively.
On the same counts, the results for `Cc1nc([C@](C)(O)C#Cc2cccc(-c3nc(C(N)=O)c(N)cc3F)c2)no1` [Example 132, 3-amino-5-fluoro-6-[3-[(3R)-3-hydroxy-3-(5-methyl-1,2,4-oxadiazol-3-yl)but-1-ynyl]phenyl]pyridine-2-carboxamide] are 8.75 nM, not below 2000 nM and not below 2000 nM.
On the same counts, the results for `Cc1ccc(-c2cccc(C#C[C@]3(O)CCN(C)C3=O)c2)nc1C(N)=O` [Example 133, 6-[3-[2-[(3R)-3-hydroxy-1-methyl-2-oxo-pyrrolidin-3-yl]ethynyl]phenyl]-3-methyl-pyridine-2-carboxamide] are 0.18 nM, not below 2000 nM and 160 nM.
On the same counts, the results for `COCCNc1ncc(-c2cc(C#C[C@]3(O)CCN(C)C3=O)ccc2F)nc1C(N)=O` [Example 134, 6-[2-fluoro-5-[2-[(3R)-3-hydroxy-1-methyl-2-oxo-pyrrolidin-3-yl]ethynyl]phenyl]-3-(2-methoxyethylamino) pyrazine-2-carboxamide] are 0.09 nM, not below 2000 nM and 45.4 nM.
In turn, `CN1CC[C@@](O)(C#Cc2cccc(-c3cc(C(F)(F)F)cc(C(N)=O)n3)c2)C1=O` [Example 135, 6-[3-[2-[(3R)-3-hydroxy-1-methyl-2-oxo-pyrrolidin-3-yl]ethynyl]phenyl]-4-(trifluoromethyl) pyridine-2-carboxamide] had a Ki in assay [1] of 0.53 nM. In addition, the figures for the IC50 in assay [2] and in assay [3] were not below 2000 nM and 147 nM, respectively.
On the same counts, the results for `COc1cc(-c2cccc(C#C[C@]3(O)CCN(C)C3=O)c2)nc(C(N)=O)n1` [Example 136, 4-[3-[2-[(3R)-3-hydroxy-1-methyl-2-oxo-pyrrolidin-3-yl]ethynyl]phenyl]-6-methoxy-pyrimidine-2-carboxamide] are 0.5 nM, not below 2000 nM and 152 nM.
On the same counts, the results for `Cc1nnc([C@](C)(O)C#Cc2cccc(-c3nc(C(N)=O)cc(-c4ccnn4C)n3)c2)o1` [Example 137, 2-[3-[(3R)-3-hydroxy-3-(5-methyl-1,3,4-oxadiazol-2-yl)but-1-ynyl]phenyl]-6-(2-methylpyrazol-3-yl)pyrimidine-4-carboxamide] are 3.68 nM, not below 20000 nM and 268 nM.
Regarding `Cc1nccn1-c1cc(C(N)=O)nc(-c2cccc(C#C[C@]3(O)CCN(C)C3=O)c2)n1` [Example 141, 2-[3-[2-[(3R)-3-hydroxy-1-methyl-2-oxo-pyrrolidin-3-yl]ethynyl]phenyl]-6-(2-methylimidazol-1-yl) pyrimidine-4-carboxamide], in assay [1], the affinity, expressed as Ki, was 0.37 nM. The IC50 in assay [2] was not below 20000 nM; in assay [3] it was 328 nM.
On the same counts, the results for `CN1CC[C@@](O)(C#Cc2cccc(-c3ncc(N[C@H]4CCOC4)c(C(N)=O)n3)c2)C1=O` [Example 142, 2-[3-[2-[(3R)-3-hydroxy-1-methyl-2-oxo-pyrrolidin-3-yl]ethynyl]phenyl]-5-[[(3S)-tetrahydrofuran-3-yl]amino] pyrimidine-4-carboxamide] are 0.24 nM, not below 20000 nM and 14.8 nM.
On the same counts, the results for `CN1CC[C@@](O)(C#Cc2cccc(-c3ncc(N[C@@H]4CCOC4)c(C(N)=O)n3)c2)C1=O` [Example 143, 2-[3-[2-[(3R)-3-hydroxy-1-methyl-2-oxo-pyrrolidin-3-yl]ethynyl]phenyl]-5-[[(3R)-tetrahydrofuran-3-yl]amino] pyrimidine-4-carboxamide] are 0.05 nM, not below 20000 nM and 8.12 nM.
On the same counts, the results for `CN1CC[C@@](O)(C#Cc2cccc(-c3cc(-c4ccnn4C)cc(C(N)=O)n3)c2)C1=O` [Example 144, 6-[3-[2-[(3R)-3-hydroxy-1-methyl-2-oxo-pyrrolidin-3-yl]ethynyl]phenyl]-4-(2-methylpyrazol-3-yl) pyridine-2-carboxamide] are 0.69 nM, not below 2000 nM and 199 nM.
`CN1CC[C@@](O)(C#Cc2cccc(-c3ncc(N)c(C(N)=O)n3)c2)C1=O` [Example 145, 5-amino-2-[3-[2-[(3R)-3-hydroxy-1-methyl-2-oxo-pyrrolidin-3-yl]ethynyl]phenyl]pyrimidine-4-carboxamide] displayed a Ki in assay [1] of 0.05 nM. Further, the IC50 in assay [2] is not below 2000 nM; in assay [3], 38 nM.
On the same counts, the results for `CN1CC[C@@](O)(C#Cc2cccc(-c3ncc(NCC(F)(F)F)c(C(N)=O)n3)c2)C1=O` [Example 146, 2-[3-[2-[(3R)-3-hydroxy-1-methyl-2-oxo-pyrrolidin-3-yl]ethynyl]phenyl]-5-(2,2,2-trifluoroethylamino) pyrimidine-4-carboxamide] are 0.37 nM, not below 20000 nM and 11.6 nM.
On the same counts, the results for `COC[C@@H](C)Nc1ccc(-c2cc(C#C[C@]3(O)CCN(C)C3=O)ccc2F)nc1C(N)=O` [Example 148, 6-[2-fluoro-5-[2-[(3R)-3-hydroxy-1-methyl-2-oxo-pyrrolidin-3-yl]ethynyl]phenyl]-3-[[(1R)-2-methoxy-1-methyl-ethyl]amino] pyridine-2-carboxamide] are 0.19 nM, not below 2000 nM and 52.4 nM.
On the same counts, the results for `COC[C@H](C)Nc1ccc(-c2cc(C#C[C@]3(O)CCN(C)C3=O)ccc2F)nc1C(N)=O` [Example 149, 6-[2-fluoro-5-[2-[(3R)-3-hydroxy-1-methyl-2-oxo-pyrrolidin-3-yl]ethynyl]phenyl]-3-[[(1S)-2-methoxy-1-methyl-ethyl]amino]pyridine-2-carboxamide] are 0.88 nM, not below 2000 nM and 51.1 nM.
Turning to `Cc1nnc([C@](C)(O)C#Cc2cccc(-c3nc(C(N)=O)cc(-n4nccc4C)n3)c2)o1` [Example 150], in assay [1], the Ki worked out at 0.99 nM. Further, the values for the half-inhibitory concentration (IC50) in assay [2] and in assay [3] were more than 2000 nM and 628 nM, respectively.
On the same counts, the results for `Cc1cc(C(N)=O)nc(-c2cccc(C#C[C@]3(O)CCN(C)C3=O)c2)c1F` [Example 151, 5-fluoro-6-[3-[2-[(3R)-3-hydroxy-l-methyl-2-oxo-pyrrolidin-3-yl]ethynyl]phenyl]-4-methyl-pyridine-2-carboxamide] are 0.67 nM, more than 2000 nM and 396 nM.
On the same counts, the results for `CN1CC[C@@](O)(C#Cc2cc(-c3ccc(N)c(C(N)=O)n3)ccc2F)C1=O` [Example 152, 3-amino-6-[4-fluoro-3-[2-[(3R)-3-hydroxy-l-methyl-2-oxo-pyrrolidin-3-yl]ethynyl]phenyl] pyridine-2-carboxamide] are less than 0.05 nM, more than 2000 nM and 46 nM.
Take `COCCNc1cnc(-c2cc(C#C[C@]3(O)CCN(C)C3=O)c(F)cc2F)nc1C(N)=O` [Example 153, 2-[2,4-difluoro-5[2-[(3R)-3-hydroxy-1-methyl-2-oxo-pyrrolidin-3-yl]ethynyl]phenyl]-5-(2-methoxyethylamino) pyrimidine-4-carboxamide]: the Ki in assay [1] was 0.1 nM. Further, the values for the IC50 in assay [2] and in assay [3] were more than 2000 nM and 45 nM, respectively.
In turn, `Cc1cn[nH]c1-c1cc(C(N)=O)nc(-c2cccc(C#C[C@]3(O)CCN(C)C3=O)c2)n1` [Example 155, 2-[3-[2-[(3R)-3-hydroxy-l-methyl-2-oxo-pyrrolidin-3-yl]ethynyl]phenyl]-6-(4-methyl-1H-pyrazol-5-yl) pyrimidine-4-carboxamide] returned a Ki in assay [1] of less than 0.05 nM. For the same compound, the IC50 in assay [2] was more than 2000 nM; in assay [3], 277 nM.
On the same counts, the results for `Cc1cc(C(N)=O)nc(-c2cc(C#C[C@]3(O)CCN(C)C3=O)ccc2F)c1` [Example 158, 6-[2-fluoro-5-[2-[(3R)-3-hydroxy-1-methyl-2-oxo-pyrrolidin-3-yl]ethynyl]phenyl]-4-methyl-pyridine-2-carboxamide] are 0.06 nM, more than 2000 nM and 63 nM.
On the same counts, the results for `CN1CC[C@@](O)(C#Cc2cccc(-c3cc4c(C(F)(F)F)c[nH]c4c(C(N)=O)n3)c2)C1=O` [Example 159, 5-[3-[2-[(3R)-3-hydroxy-l-methyl-2-oxo-pyrrolidin-3-yl]ethynyl]phenyl]-3-(trifluoromethyl)-1H-pyrrolo [2,3-c]pyridine-7-carboxamide] are less than 0.05 nM, more than 2000 nM and 73 nM.
On the same counts, the results for `CN1CC[C@@](O)(C#Cc2cc(-c3cccc(C(N)=O)n3)c3ncsc3c2)C1=O` [Example 160] are 0.5 nM, more than 2000 nM and 416 nM.
`CN1CC[C@@](O)(C#Cc2cc(F)cc(-c3nc(C(N)=O)cn4ccnc34)c2)C1=O` [Example 161, 8-[3-fluoro-5-[2-[(3R)-3-hydroxy-l-methyl-2-oxo-pyrrolidin-3-yl]ethynyl]phenyl]imidazol [1,2-a]pyrazine-6-carboxamide] came in with a Ki in assay [1] of 0.33 nM. In addition, the IC50 in assay [2] was more than 2000 nM; in assay [3], 445 nM.

A word on the Ki: it is the equilibrium dissociation constant of an inhibitor or competing ligand from its target. For orientation: IC50 means the midpoint of a concentration-inhibition curve.
